Reference: ChEMBL document CHEMBL5058642, “Data for DCP probe TP-051” (2022)

Columns and labels:
[1] = molecular target: Alpha-2C adrenergic receptor (Homo sapiens) (UniProt P18825); conditions: Compound concentration 10.0 uM
Mus musculus = species on record: Mus musculus; test: Inhibition of Phorbol Ester at 10 µM in the Eurofins-Panlabs radioligand binding assay (Eurofins_assay_264500); set-up: ligand concentration 3 nM; conditions: Compound concentration 10.0 uM
Homo sapiens [2] = species on record: Homo sapiens; test: Chemokine CXCR1/2 (IL-8, Non-selective) Eurofins-Panlabs radioligand binding assay; conditions: Compound concentration 10.0 uM
[3] = molecular target: B1 bradykinin receptor (Homo sapiens) (UniProt P46663); test: Inhibition of Bradykinin B1 at 10 µM in the Eurofins-Panlabs radioligand binding assay (Eurofins_assay_212510); conditions: Compound concentration 10.0 uM
Chain of B1 bradykinin receptor (Homo sapiens) (P46663 whole entry): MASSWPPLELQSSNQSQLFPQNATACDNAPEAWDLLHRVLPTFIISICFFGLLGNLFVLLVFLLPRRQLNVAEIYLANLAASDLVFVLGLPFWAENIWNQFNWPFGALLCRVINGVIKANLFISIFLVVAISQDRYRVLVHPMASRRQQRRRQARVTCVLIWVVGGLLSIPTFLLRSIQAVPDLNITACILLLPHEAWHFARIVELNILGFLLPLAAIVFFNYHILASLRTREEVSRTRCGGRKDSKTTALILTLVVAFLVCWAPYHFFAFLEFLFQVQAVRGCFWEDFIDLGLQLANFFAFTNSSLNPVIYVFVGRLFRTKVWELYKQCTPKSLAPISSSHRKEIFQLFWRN

[4] = molecular target: Histamine H1 receptor (Homo sapiens) (UniProt P35367); conditions: Compound concentration 10.0 uM
Rattus norvegicus [5] = species on record: Rattus norvegicus; test: Serotonin (5-Hydroxytryptamine) 5-HT1, Non-Selective Eurofins-Panlabs radioligand binding assay; assay type: protein assay; conditions: Compound concentration 10.0 uM
[6] = molecular target: Beta-3 adrenergic receptor (Homo sapiens) (UniProt P13945); conditions: Compound concentration 10.0 uM
[7] = molecular target: 5-hydroxytryptamine receptor 4 (Homo sapiens) (UniProt Q13639); test: Inhibition of Serotonin (5-Hydroxytryptamine) 5-HT4 at 10 µM in the Eurofins-Panlabs radioligand binding assay (Eurofins_assay_272000); conditions: Cavia porcellus; Compound concentration 10.0 uM
[8] = molecular target: Beta-2 adrenergic receptor (Homo sapiens, UniProt P07550); conditions: Compound concentration 10.0 uM
[9] = molecular target: Adenosine receptor A3 (Homo sapiens) (UniProt P0DMS8); conditions: Compound concentration 10.0 uM
Chain of Adenosine receptor A3 (Homo sapiens) (P0DMS8 whole entry): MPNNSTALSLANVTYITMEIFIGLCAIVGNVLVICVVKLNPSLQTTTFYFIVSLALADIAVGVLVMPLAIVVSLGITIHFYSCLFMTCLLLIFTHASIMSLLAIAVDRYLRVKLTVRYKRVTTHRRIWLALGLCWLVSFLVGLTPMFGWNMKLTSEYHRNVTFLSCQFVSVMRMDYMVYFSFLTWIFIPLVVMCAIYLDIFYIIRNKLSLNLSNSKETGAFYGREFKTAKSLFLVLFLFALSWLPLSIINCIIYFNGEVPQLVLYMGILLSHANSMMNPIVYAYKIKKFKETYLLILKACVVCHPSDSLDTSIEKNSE

[10] = molecular target: 5-hydroxytryptamine receptor 1A (Homo sapiens) (UniProt P08908); conditions: Compound concentration 10.0 uM
Rattus norvegicus [11] = species on record: Rattus norvegicus; conditions: Compound concentration 10.0 uM
[12] = molecular target: T1, D(4) dopamine receptor (Homo sapiens) (UniProt P21917); conditions: Compound concentration 10.0 uM
T1 sequence (whole entry): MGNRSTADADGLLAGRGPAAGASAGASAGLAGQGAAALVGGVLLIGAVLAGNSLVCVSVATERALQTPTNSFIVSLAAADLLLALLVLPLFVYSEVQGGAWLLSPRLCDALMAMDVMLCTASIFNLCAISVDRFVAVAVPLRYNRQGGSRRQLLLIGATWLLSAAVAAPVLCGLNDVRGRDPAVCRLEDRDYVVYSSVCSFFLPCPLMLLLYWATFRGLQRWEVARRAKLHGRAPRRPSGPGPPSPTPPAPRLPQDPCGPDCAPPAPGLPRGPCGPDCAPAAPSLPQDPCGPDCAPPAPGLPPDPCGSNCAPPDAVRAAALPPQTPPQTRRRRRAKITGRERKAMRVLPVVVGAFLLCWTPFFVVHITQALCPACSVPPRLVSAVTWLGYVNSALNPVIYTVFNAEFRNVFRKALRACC

Homo sapiens [13] = species on record: Homo sapiens; test: Estrogen ERbeta Eurofins-Panlabs radioligand binding assay; conditions: Compound concentration 10.0 uM
[14] = molecular target: Endothelin receptor type B (Homo sapiens) (UniProt P24530); conditions: Compound concentration 10.0 uM
Chain of Endothelin receptor type B (Homo sapiens) (P24530 whole entry): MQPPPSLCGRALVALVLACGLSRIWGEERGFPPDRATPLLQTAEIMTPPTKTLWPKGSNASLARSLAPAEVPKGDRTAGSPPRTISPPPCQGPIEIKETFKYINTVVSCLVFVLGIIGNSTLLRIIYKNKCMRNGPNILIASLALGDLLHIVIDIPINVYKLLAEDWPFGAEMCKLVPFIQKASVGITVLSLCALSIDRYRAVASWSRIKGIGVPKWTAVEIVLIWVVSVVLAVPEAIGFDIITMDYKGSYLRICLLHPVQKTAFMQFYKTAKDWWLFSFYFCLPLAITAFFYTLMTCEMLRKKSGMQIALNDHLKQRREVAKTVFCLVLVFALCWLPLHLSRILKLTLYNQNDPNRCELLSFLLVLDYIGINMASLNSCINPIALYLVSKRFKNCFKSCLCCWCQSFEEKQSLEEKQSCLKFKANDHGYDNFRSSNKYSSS

[15] = molecular target: Cholecystokinin receptor type A (Homo sapiens) (UniProt P32238); test: Inhibition of Cholecystokinin CCK1 (CCKA) at 10 µM in the Eurofins-Panlabs radioligand binding assay (Eurofins_assay_218020); conditions: Compound concentration 10.0 uM
[16] = molecular target: Insulin receptor (Homo sapiens) (UniProt P06213); conditions: Rattus norvegicus; Compound concentration 10.0 uM
Chain of Insulin receptor (Homo sapiens) (P06213 28-758 limits assumed): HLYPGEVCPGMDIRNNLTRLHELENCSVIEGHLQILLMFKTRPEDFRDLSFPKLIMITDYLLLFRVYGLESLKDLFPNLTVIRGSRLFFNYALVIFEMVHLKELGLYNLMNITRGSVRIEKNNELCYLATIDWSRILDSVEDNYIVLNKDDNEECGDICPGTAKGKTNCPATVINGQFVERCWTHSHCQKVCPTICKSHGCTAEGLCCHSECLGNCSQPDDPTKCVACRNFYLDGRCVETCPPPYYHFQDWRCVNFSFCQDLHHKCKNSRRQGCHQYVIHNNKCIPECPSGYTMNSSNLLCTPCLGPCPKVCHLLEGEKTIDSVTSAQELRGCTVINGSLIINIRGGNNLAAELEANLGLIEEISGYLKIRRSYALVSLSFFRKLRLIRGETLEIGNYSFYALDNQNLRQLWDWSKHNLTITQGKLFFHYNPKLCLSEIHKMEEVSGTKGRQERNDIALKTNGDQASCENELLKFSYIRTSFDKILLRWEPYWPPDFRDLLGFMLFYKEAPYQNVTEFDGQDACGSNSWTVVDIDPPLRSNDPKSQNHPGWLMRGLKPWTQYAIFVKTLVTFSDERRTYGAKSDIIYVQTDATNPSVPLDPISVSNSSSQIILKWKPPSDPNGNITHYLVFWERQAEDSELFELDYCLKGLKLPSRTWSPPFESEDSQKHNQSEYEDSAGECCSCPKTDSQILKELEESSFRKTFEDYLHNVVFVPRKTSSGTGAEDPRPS
Chain of Insulin receptor (Homo sapiens) (P06213 763-1382 limits assumed): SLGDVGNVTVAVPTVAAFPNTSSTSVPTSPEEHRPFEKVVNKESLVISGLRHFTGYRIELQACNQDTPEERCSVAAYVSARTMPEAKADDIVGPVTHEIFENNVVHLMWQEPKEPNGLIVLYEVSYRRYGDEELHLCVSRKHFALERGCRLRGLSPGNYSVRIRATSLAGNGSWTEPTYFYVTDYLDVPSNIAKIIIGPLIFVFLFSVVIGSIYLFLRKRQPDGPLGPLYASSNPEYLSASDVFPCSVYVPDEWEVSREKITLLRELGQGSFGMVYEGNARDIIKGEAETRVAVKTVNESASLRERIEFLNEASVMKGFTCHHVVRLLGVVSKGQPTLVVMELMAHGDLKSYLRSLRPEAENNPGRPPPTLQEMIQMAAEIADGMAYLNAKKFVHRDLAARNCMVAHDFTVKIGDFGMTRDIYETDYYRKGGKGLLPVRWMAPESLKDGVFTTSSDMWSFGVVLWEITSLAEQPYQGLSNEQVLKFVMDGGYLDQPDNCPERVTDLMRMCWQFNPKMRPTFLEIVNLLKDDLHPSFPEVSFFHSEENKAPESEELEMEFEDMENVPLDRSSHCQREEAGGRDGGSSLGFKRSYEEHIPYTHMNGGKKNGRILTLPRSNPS

[17] = molecular target: T2, Muscarinic acetylcholine receptor M1 (Homo sapiens) (UniProt P11229); conditions: Compound concentration 10.0 uM
T2 sequence (whole entry): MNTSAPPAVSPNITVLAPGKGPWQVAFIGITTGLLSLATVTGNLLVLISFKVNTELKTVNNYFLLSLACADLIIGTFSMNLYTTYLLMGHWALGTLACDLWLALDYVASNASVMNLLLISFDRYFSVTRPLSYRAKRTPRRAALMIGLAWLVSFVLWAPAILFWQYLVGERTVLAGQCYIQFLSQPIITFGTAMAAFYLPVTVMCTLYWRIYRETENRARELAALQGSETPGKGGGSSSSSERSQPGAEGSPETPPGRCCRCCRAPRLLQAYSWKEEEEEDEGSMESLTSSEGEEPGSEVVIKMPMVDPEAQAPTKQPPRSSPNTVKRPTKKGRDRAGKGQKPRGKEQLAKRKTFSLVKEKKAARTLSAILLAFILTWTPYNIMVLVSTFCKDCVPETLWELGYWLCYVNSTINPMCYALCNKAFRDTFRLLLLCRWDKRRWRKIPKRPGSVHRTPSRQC

[18] = molecular target: Endothelin-1 receptor (Homo sapiens) (UniProt P25101); conditions: Compound concentration 10.0 uM
Chain of Endothelin-1 receptor (Homo sapiens) (P25101 whole entry): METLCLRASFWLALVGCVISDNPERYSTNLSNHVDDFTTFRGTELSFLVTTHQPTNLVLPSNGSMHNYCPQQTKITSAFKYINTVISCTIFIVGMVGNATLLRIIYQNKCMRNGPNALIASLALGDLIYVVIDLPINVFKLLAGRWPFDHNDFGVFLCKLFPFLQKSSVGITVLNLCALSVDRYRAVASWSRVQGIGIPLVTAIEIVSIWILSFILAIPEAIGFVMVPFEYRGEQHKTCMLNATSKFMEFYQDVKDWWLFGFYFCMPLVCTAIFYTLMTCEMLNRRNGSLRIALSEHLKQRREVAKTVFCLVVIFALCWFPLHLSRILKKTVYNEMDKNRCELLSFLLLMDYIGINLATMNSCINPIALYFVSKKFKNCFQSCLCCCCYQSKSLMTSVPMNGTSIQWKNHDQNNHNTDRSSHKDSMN

[19] = molecular target: Muscarinic acetylcholine receptor M5 (Homo sapiens) (UniProt P08912); conditions: Compound concentration 10.0 uM
[20] = molecular target: 5-hydroxytryptamine receptor 1B (Homo sapiens) (UniProt P28222); conditions: Compound concentration 10.0 uM
[21] = molecular target: Mu-type opioid receptor (Homo sapiens) (UniProt P35372); conditions: Compound concentration 10.0 uM
Chain of Mu-type opioid receptor (Homo sapiens) (P35372 whole entry): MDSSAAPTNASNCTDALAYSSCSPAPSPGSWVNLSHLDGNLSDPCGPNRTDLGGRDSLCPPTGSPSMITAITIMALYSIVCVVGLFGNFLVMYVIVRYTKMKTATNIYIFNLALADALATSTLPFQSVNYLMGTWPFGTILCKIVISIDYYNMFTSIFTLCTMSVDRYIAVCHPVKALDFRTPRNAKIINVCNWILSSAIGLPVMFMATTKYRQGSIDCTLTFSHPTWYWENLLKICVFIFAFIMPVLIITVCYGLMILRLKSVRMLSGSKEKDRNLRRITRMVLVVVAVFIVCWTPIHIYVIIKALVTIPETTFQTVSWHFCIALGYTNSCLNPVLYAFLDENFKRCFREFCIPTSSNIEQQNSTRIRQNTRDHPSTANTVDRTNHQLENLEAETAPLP

Rattus norvegicus [22] = species on record: Rattus norvegicus; test: Testosterone Eurofins-Panlabs radioligand binding assay; set-up: ligand concentration 1.5 nM; conditions: Compound concentration 10.0 uM
[23] = molecular target: Glutamate receptor 2 (Homo sapiens) (UniProt P42262); conditions: Rattus norvegicus; Compound concentration 10.0 uM
[24] = molecular target: D(1B) dopamine receptor (Homo sapiens) (UniProt P21918); conditions: Compound concentration 10.0 uM
[25] = molecular target: Kappa-type opioid receptor (Homo sapiens) (UniProt P41145); conditions: Compound concentration 10.0 uM
Chain of Kappa-type opioid receptor (Homo sapiens) (P41145 whole entry): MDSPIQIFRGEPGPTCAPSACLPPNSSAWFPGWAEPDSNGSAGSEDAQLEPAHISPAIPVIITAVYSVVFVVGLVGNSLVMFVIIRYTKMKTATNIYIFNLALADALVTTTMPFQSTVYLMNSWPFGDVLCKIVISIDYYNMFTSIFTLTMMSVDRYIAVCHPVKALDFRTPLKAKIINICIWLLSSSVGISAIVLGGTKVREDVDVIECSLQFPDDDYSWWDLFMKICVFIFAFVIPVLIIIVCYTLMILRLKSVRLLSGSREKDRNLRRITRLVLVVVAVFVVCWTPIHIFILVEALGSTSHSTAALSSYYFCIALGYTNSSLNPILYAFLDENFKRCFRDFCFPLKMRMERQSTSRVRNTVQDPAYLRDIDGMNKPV

[26] = molecular target: Vasopressin V1a receptor (Homo sapiens) (UniProt P37288); test: Vasopressin V1A Eurofins-Panlabs radioligand binding assay; set-up: ligand concentration 0.01 nM; conditions: Compound concentration 10.0 uM
Chain of Vasopressin V1a receptor (Homo sapiens) (P37288 whole entry, looked up): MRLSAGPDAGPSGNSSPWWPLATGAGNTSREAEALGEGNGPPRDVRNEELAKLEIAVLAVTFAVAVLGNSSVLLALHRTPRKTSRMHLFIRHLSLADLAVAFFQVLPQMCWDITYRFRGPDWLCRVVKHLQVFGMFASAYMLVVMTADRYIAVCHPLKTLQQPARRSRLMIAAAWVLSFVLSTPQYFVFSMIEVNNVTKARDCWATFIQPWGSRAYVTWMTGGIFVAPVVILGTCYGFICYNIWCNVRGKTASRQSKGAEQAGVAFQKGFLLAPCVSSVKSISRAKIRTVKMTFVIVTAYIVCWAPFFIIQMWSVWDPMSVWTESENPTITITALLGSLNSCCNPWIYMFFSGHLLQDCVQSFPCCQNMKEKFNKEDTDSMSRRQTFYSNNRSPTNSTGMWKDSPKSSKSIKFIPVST

[27] = molecular target: T3, GABA-A receptor; anion channel (Rattus norvegicus) (UniProt O09028+P15431+P18506+P18508+P19969+P20236+P23574+P23576+P28471+P28473+P30191+P62813+P63079+P63138+Q91ZM7+Q9ES14); conditions: Compound concentration 10.0 uM
[28] = molecular target: T3, GABA-A receptor; anion channel (Rattus norvegicus); conditions: Compound concentration 10.0 uM; remark: listed apart in the source
[29] = molecular target: Sodium-dependent noradrenaline transporter (Homo sapiens) (UniProt P23975); conditions: Compound concentration 10.0 uM
Chain of Sodium-dependent noradrenaline transporter (Homo sapiens) (P23975 whole entry): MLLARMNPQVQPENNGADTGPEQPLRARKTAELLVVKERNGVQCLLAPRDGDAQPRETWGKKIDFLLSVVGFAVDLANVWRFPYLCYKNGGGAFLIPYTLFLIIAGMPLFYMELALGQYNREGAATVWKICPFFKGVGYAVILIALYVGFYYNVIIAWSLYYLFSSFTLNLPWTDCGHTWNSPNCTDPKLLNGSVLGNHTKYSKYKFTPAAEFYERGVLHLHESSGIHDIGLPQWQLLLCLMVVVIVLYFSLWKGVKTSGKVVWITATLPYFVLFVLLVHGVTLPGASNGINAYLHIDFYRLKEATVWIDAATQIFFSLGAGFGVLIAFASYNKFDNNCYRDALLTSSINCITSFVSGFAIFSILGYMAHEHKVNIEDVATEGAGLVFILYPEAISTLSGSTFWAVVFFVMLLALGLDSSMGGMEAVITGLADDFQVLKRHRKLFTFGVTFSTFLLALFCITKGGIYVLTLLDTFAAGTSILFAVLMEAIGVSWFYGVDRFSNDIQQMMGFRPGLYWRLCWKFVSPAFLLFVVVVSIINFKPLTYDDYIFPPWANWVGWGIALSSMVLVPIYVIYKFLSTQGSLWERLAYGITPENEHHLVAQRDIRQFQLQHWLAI

[30] = molecular target: D(2) dopamine receptor (Homo sapiens) (UniProt P14416); conditions: Compound concentration 10.0 uM
[31] = molecular target: T2, Muscarinic acetylcholine receptor M1 (Homo sapiens); test: Muscarinic M1 Eurofins-Panlabs radioligand binding assay; conditions: Compound concentration 10.0 uM

| Structure (SMILES) | inhibition [1] | inhibition (Mus musculus) | inhibition (Homo sapiens [2]) | inhibition [3] | inhibition [4] | inhibition (Rattus norvegicus [5]) | inhibition [6] | inhibition [7] | inhibition [8] | inhibition [9] | inhibition [10] | inhibition (Rattus norvegicus [11]) | inhibition [12] | inhibition (Homo sapiens [13]) | inhibition [14] | inhibition [15] | inhibition [16] | inhibition [17] | inhibition [18] | inhibition [19] | further results |
| --- | --- | --- | --- | --- | --- | --- | --- | --- | --- | --- | --- | --- | --- | --- | --- | --- | --- | --- | --- | --- | --- |
| Cc1cc(OC2CCS(=O)(=O)CC2)cc(C)c1-c1cccc(COc2ccc(CCC(=O)O)c(F)c2)c1 | 5.47% | -9% | 3% | 14% | -7% | 16% | -5.43% | 8% | 3% | 5% | 1.37% | -4% | 85.4% | 20% | 0% | 4% | 7% | 15.8% | -2% | 20.4% | inhibition [20]: 19.3%; inhibition [21]: 1.32%; inhibition (Rattus norvegicus [22]): 17%; inhibition [23]: 4%; inhibition [24]: 32.2%; inhibition [25]: 10.2%; inhibition [26]: 0%; inhibition [27]: 21%; inhibition [28]: 23.7%; inhibition [29]: 22%; inhibition [30]: -2%; inhibition [31]: -9% |
| Cc1cc(OC2CCS(=O)(=O)CC2)cc(C)c1-c1cccc(COc2ccc(C(=O)O)c(F)c2)c1 | -4.04% | -3% | 4% | 19% | 2% | -9% | 6.71% | -8% | -7% | 0% | -6.09% | 7% | 7.27% | 8% | 15% | -9% | 0% | -1.5% | -2% | -4.74% | inhibition [20]: 23.2%; inhibition [21]: -7.84%; inhibition (Rattus norvegicus [22]): 26%; inhibition [23]: -3%; inhibition [24]: 17.5%; inhibition [25]: 4.04%; inhibition [26]: -4%; inhibition [27]: 14%; inhibition [28]: 19.5%; inhibition [29]: 5%; inhibition [30]: -4%; inhibition [31]: -7% |
